Marks after values point to notes of the source that are not given here.
Assays:
[1] = Example 2: broiler performance (body weight gain, feed intake, FCR), PQQ in diet, 0 to 42 days; assay type: in vivo, Broiler Chicken (Cobb 500)
From the text: Study Animals: • Animal: Broiler Chicken • Breed/Strain: Cobb 500 • Description: Day-of-hatch male chicks, sexed at hatchery • Sex: Male Total number of treatments: 4 Total number of replicates per treatment: 12 Total number of chicks per replicate: […] Initial age: day-of-hatch: 0 days-of-age Final age: 6 weeks: 42 days-of-age. Feed will be changed based on the days of each phase. • Starter feed will be weighed out and fed from day 0 to 7. • Grower feed will be weighed, issued and fed from day 8 until 21. • Finisher feed will be weighed, issued and fed from day 22 until 35. • Withdraw feed will be weighed, issued and fed from day 36 until 42. Performance: Feed consumption and pen weights are determined on days 0, 21, 35 and 42 to calculate average body weight (BW), body weight gain (BWG) and feed conversion ratio (FCR). Final bird weights: At the end of the grow-out period (Day 42), all birds are weighed, as well as any and all remaining feed. Randomized Complete Block Design with 4 treatments×12 replicates/treatment (40 birds/pen), randomized within blocks across the barn to minimize differences in environmental condition. The pen is the experimental unit. Dietary Treatments • Control (NC, negative control without PQQ) • 0.2 ppm PQQ • 0.5 ppm PQQ • 1 ppm PQQ The results are presented in tables 5 to 13 below for broilers fed diets from 0 to 42 days (d) of age. The values given are the mean and the P value.

wooden breast myopathies = assay: Example 2: wooden breast assessment by expert panel at 42 d; assay type: in vivo, Broiler Chicken (Cobb 500); conditions: for wooden breast means per treatment (WB): score scale WB0-WB4
Description: Study Animals: • Animal: Broiler Chicken • Breed/Strain: Cobb 500 • Description: Day-of-hatch male chicks, sexed at hatchery • Sex: Male
Processing: On day […] (12) birds are selected from each pen for processing (at 12 reps/trt: 576 birds in total; 144 birds/trt)
Wooden breast assessment was determined by an expert panel according to 5 levels: WB0, WB1, WB2, WB3, WB4 from no WB to severe WB.
Dietary Treatments • Control (NC, negative control without PQQ) • 0.2 ppm PQQ • 0.5 ppm PQQ • 1 ppm PQQ
Wooden Breast Scores were: WB 0—normal breast; WB 1—mild hardening in the upper; WB 2—moderate hardening in the upper and/or lower part of the fillet; WB 3—severe hardening; WB 4—severe hardening with hemorrhagic lesions, increased volume, and presence of yellow fluid.
Higher is the score per WB 3 and 4 categories, greater is the default. Conversely, for categories WB0 to WB2, higher is the score, better is the quality.
Wooden breast scores were: WB0—normal breast; WB1—mild hardening in the upper; WB 2—moderate hardening in the upper and/or lower part of the fillet; WB 3—severe hardening; WB 4—severe hardening with hemorrhagic lesions, increased volume, and presence of yellow fluid.

For O=C(O)c1cc(C(=O)O)c2c(n1)C(=O)C(=O)c1cc(C(=O)O)[nH]c1-2 [PQQ, pyrroloquinoline quinone], the “Cumulative feed intake of broilers” value ([1]; 0.2 ppm PQQ (T2), 1 t1o 42 d) was 5365 g, the “Cumulative feed intake of broilers” value ([1]; 0.2 ppm PQQ (T2), 1 to1 21 d) was 835 g and the “feed intake of broilers” value ([1]; 0.2 ppm PQQ (T2), 1 to 7 d) was 158 g. The “cumulative body weight gain of broilers” value ([1]; 0.2 ppm PQQ (T2), 1 to 21 d) was 624 g, the “cumulative feed conversion ratio of broilers” value ([1]; 0.2 ppm PQQ (T2), 1 to 21 d) was 1.355 and the “cumulative body weight gain of broilers” value ([1]; 0.2 ppm PQQ (T2), 1 to 35 d) was 2125 g. For the same compound, the “cumulative feed conversion ratio of broilers” value ([1]; 0.2 ppm PQQ (T2), 1 to 35 d) was 1.494, the “cumulative body weight gain of broilers” value ([1]; 0.2 ppm PQQ (T2), 1 to 42 d) was 3204 g and the “cumulative feed conversion ratio of broilers” value ([1]; 0.2 ppm PQQ (T2), 1 to 42 d) was 1.674. The “feed intake of broilers” value ([1]; 0.2 ppm PQQ (T2), 8 to 21 d) was 677 g, the “Cumulative feed intake of broilers” value ([1]; 0.2 ppm PQQ (T2), 11 to 35 d) was 3173 g and the “feed intake of broilers” value ([1]; 0.2 ppm PQQ (T2), 22 to 35 d) was 2346 g. The “feed intake of broilers” value ([1]; 0.2 ppm PQQ (T2), 36 to 42 d) was 2218 g, the “Cumulative feed intake of broilers” value ([1]; 0.5 ppm PQQ (T3), 1 t1o 42 d) was 5316 g and the “Cumulative feed intake of broilers” value ([1]; 0.5 ppm PQQ (T3), 1 to1 21 d) was 853 g. For the same compound, the “feed intake of broilers” value ([1]; 0.5 ppm PQQ (T3), 1 to 7 d) was 156 g, the “cumulative body weight gain of broilers” value ([1]; 0.5 ppm PQQ (T3), 1 to 21 d) was 608 g and the “cumulative feed conversion ratio of broilers” value ([1]; 0.5 ppm PQQ (T3), 1 to 21 d) was 1.402. The “cumulative body weight gain of broilers” value ([1]; 0.5 ppm PQQ (T3), 1 to 35 d) was 2123 g, the “cumulative feed conversion ratio of broilers” value ([1]; 0.5 ppm PQQ (T3), 1 to 35 d) was 1.526 and the “cumulative body weight gain of broilers” value ([1]; 0.5 ppm PQQ (T3), 1 to 42 d) was 3166 g. The “cumulative feed conversion ratio of broilers” value ([1]; 0.5 ppm PQQ (T3), 1 to 42 d) was 1.675, the “feed intake of broilers” value ([1]; 0.5 ppm PQQ (T3), 8 to 21 d) was 699 g and the “Cumulative feed intake of broilers” value ([1]; 0.5 ppm PQQ (T3), 11 to 35 d) was 3236 g. For the same compound, the “feed intake of broilers” value ([1]; 0.5 ppm PQQ (T3), 22 to 35 d) was 2390 g, the “feed intake of broilers” value ([1]; 0.5 ppm PQQ (T3), 36 to 42 d) was 2105 g and the “Cumulative feed intake of broilers” value ([1]; 1.0 ppm PQQ (T4), 1 t1o 42 d) was 5449 g. For the same compound, the “Cumulative feed intake of broilers” value ([1]; 1.0 ppm PQQ (T4), 1 to1 21 d) was 905 g, the “feed intake of broilers” value ([1]; 1.0 ppm PQQ (T4), 1 to 7 d) was 159 g and the “cumulative body weight gain of broilers” value ([1]; 1.0 ppm PQQ (T4), 1 to 21 d) was 630 g. For the same compound, the “cumulative feed conversion ratio of broilers” value ([1]; 1.0 ppm PQQ (T4), 1 to 21 d) was 1.429, the “cumulative body weight gain of broilers” value ([1]; 1.0 ppm PQQ (T4), 1 to 35 d) was 2178 g and the “cumulative feed conversion ratio of broilers” value ([1]; 1.0 ppm PQQ (T4), 1 to 35 d) was 1.540. For the same compound, the “cumulative body weight gain of broilers” value ([1]; 1.0 ppm PQQ (T4), 1 to 42 d) was 3188 g, the “cumulative feed conversion ratio of broilers” value ([1]; 1.0 ppm PQQ (T4), 1 to 42 d) was 1.708 and the “feed intake of broilers” value ([1]; 1.0 ppm PQQ (T4), 8 to 21 d) was 747 g. The “Cumulative feed intake of broilers” value ([1]; 1.0 ppm PQQ (T4), 11 to 35 d) was 3357 g, the “feed intake of broilers” value ([1]; 1.0 ppm PQQ (T4), 22 to 35 d) was 2459 g and the “feed intake of broilers” value ([1]; 1.0 ppm PQQ (T4), 36 to 42 d) was 2113 g. The “influence on the body weight” value ([1]; each concentration (0.2, 0.5, 1.0 ppm)) was “positive influence”, the “wooden breast myopathies occurrence, WB0” value (wooden breast myopathies; 0.2 ppm PQQ (T2)) was 0.83% and the “wooden breast myopathies occurrence, WB1” value (wooden breast myopathies; 0.2 ppm PQQ (T2)) was 2.78%. For the same compound, the “wooden breast myopathies occurrence, WB2” value (wooden breast myopathies; 0.2 ppm PQQ (T2)) was 20.00^a %, the “wooden breast myopathies occurrence, WB3” value (wooden breast myopathies; 0.2 ppm PQQ (T2)) was 49.16^a % and the “wooden breast myopathies occurrence, WB4” value (wooden breast myopathies; 0.2 ppm PQQ (T2)) was 27.22%. For the same compound, the “wooden breast myopathies scores, WB0” value (wooden breast myopathies; 0.2 ppm PQQ (T2)) was 0.08, the “wooden breast myopathies scores, WB1” value (wooden breast myopathies; 0.2 ppm PQQ (T2)) was 0.17 and the “wooden breast myopathies scores, WB2” value (wooden breast myopathies; 0.2 ppm PQQ (T2)) was 1.17^b. For the same compound, the “wooden breast myopathies scores, WB3” value (wooden breast myopathies; 0.2 ppm PQQ (T2)) was 2.92, the “wooden breast myopathies scores, WB4” value (wooden breast myopathies; 0.2 ppm PQQ (T2)) was 1.67 and the “wooden breast means per treatment (WB)” value (wooden breast myopathies; 0.2 ppm PQQ (T2)) was 2.92^a. For the same compound, the “wooden breast myopathies occurrence, WB0” value (wooden breast myopathies; 0.5 ppm PQQ (T3)) was 0.00%, the “wooden breast myopathies occurrence, WB1” value (wooden breast myopathies; 0.5 ppm PQQ (T3)) was 15.29% and the “wooden breast myopathies occurrence, WB2” value (wooden breast myopathies; 0.5 ppm PQQ (T3)) was 41.67^ab %. For the same compound, the “wooden breast myopathies occurrence, WB3” value (wooden breast myopathies; 0.5 ppm PQQ (T3)) was 30.56^ab %, the “wooden breast myopathies occurrence, WB4” value (wooden breast myopathies; 0.5 ppm PQQ (T3)) was 12.50% and the “wooden breast myopathies scores, WB0” value (wooden breast myopathies; 0.5 ppm PQQ (T3)) was 0.00. The “wooden breast myopathies scores, WB1” value (wooden breast myopathies; 0.5 ppm PQQ (T3)) was 0.92, the “wooden breast myopathies scores, WB2” value (wooden breast myopathies; 0.5 ppm PQQ (T3)) was 2.50^ab and the “wooden breast myopathies scores, WB3” value (wooden breast myopathies; 0.5 ppm PQQ (T3)) was 1.83. The “wooden breast myopathies scores, WB4” value (wooden breast myopathies; 0.5 ppm PQQ (T3)) was 0.75, the “wooden breast means per treatment (WB)” value (wooden breast myopathies; 0.5 ppm PQQ (T3)) was 2.36^b and the “change in proportion of WB2 breast fillets with supplementation” value (wooden breast myopathies; 1 ppm PQQ) was “+50%”. For the same compound, the “change in proportion of WB4 breast fillets with supplementation” value (wooden breast myopathies; 1 ppm PQQ) was −60%, the “wooden breast myopathies occurrence, WB0” value (wooden breast myopathies; 1.0 ppm PQQ (T4)) was 0.00% and the “wooden breast myopathies occurrence, WB1” value (wooden breast myopathies; 1.0 ppm PQQ (T4)) was 18.05%. For the same compound, the “wooden breast myopathies occurrence, WB2” value (wooden breast myopathies; 1.0 ppm PQQ (T4)) was 46.94^a %, the “wooden breast myopathies occurrence, WB3” value (wooden breast myopathies; 1.0 ppm PQQ (T4)) was 25.00^b % and the “wooden breast myopathies occurrence, WB4” value (wooden breast myopathies; 1.0 ppm PQQ (T4)) was 10.00%. The “wooden breast myopathies scores, WB0” value (wooden breast myopathies; 1.0 ppm PQQ (T4)) was 0.00, the “wooden breast myopathies scores, WB1” value (wooden breast myopathies; 1.0 ppm PQQ (T4)) was 1.08 and the “wooden breast myopathies scores, WB2” value (wooden breast myopathies; 1.0 ppm PQQ (T4)) was 2.75^a. For the same compound, the “wooden breast myopathies scores, WB3” value (wooden breast myopathies; 1.0 ppm PQQ (T4)) was 1.50, the “wooden breast myopathies scores, WB4” value (wooden breast myopathies; 1.0 ppm PQQ (T4)) was 0.58 and the “wooden breast means per treatment (WB)” value (wooden breast myopathies; 1.0 ppm PQQ (T4)) was 2.26^b. For the same compound, the “proportions of bad quality fillets (WB3 and WB4)” value (wooden breast myopathies; supplementation with PQQ) was “lower proportions” and the “proportions of good quality breast fillets (WB0 to WB2)” value (wooden breast myopathies; supplementation with PQQ) was “higher proportions”.

— patent US20210161174A1, “FEED ADDITIVE FOR FARMED ANIMALS” (ADISSEO FRANCE S.A.S., priority 2018, published 2021)
